From PMC8308925 (Pharmaceuticals, 2021)
Values belong to the compound of their own block, whether it stands above or below them.

Key:
UGT1A1 = target: T1, UGT1A1 (Homo sapiens, UniProt P22309); test: biochemical
T1 sequence (P22309 26-533): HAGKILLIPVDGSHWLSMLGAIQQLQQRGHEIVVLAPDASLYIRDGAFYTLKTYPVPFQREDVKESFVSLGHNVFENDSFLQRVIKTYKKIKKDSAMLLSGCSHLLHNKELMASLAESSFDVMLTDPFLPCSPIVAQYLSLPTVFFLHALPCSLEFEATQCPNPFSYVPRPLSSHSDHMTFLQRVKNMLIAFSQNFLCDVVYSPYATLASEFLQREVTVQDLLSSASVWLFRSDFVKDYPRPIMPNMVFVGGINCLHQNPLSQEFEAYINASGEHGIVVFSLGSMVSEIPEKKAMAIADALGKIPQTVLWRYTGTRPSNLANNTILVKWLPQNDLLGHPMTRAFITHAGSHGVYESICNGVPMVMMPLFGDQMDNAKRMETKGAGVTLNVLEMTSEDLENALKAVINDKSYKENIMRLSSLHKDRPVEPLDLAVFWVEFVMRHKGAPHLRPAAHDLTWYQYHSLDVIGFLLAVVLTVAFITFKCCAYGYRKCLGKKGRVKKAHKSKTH

UGT2B7 = target: T2, UGT2B7 (Homo sapiens, UniProt P16662); test: biochemical
T2 sequence (P16662 24-529): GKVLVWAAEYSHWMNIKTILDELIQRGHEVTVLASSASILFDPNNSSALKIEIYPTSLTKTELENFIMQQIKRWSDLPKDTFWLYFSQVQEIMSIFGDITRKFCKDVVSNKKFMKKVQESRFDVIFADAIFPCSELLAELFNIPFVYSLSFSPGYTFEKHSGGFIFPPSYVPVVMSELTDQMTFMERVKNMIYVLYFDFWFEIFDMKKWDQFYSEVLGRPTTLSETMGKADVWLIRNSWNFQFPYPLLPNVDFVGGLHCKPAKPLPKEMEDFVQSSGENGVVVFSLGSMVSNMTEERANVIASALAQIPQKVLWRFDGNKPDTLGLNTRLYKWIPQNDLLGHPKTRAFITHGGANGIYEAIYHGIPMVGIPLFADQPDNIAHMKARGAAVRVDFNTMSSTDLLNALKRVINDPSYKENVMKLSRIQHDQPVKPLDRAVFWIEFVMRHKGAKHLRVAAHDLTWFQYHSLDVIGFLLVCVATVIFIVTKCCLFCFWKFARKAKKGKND

UGT1A4 = target: T3, UGT1A4 (Homo sapiens, UniProt P22310); test: biochemical
T3 sequence (P22310 29-534): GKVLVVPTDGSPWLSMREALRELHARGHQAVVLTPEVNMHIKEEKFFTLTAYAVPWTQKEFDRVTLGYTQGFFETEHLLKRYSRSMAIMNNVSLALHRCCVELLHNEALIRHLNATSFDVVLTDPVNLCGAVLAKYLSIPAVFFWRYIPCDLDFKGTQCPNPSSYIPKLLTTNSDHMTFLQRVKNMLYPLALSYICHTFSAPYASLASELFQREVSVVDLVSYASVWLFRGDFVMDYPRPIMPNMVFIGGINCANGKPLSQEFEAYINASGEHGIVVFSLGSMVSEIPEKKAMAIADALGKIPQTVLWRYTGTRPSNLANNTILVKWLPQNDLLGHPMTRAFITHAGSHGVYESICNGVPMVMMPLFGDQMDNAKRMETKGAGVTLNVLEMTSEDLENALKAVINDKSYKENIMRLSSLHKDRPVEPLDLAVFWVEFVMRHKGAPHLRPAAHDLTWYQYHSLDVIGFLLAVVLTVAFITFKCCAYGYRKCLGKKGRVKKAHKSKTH

UGT1A9 = target: T4, UGT1A9 (Homo sapiens, UniProt O60656); test: biochemical
T4 sequence (O60656 26-530): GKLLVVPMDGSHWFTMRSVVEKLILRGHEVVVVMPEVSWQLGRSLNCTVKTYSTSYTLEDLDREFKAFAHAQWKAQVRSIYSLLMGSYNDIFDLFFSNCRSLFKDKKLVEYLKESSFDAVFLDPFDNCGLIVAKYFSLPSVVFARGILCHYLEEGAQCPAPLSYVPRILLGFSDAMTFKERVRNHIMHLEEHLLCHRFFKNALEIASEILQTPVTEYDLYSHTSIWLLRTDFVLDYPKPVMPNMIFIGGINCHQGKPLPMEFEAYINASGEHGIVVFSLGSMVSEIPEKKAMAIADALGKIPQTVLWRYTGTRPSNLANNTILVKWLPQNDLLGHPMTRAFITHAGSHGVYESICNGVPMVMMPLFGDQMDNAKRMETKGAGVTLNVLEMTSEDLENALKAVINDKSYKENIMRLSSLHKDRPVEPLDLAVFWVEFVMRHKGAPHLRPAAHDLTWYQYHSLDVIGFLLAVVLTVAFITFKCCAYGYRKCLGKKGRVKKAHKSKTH

MATE1 = target: T5, MATE1 (Homo sapiens, UniProt Q96FL8); settings: 4 µM probe substrate, HEK 293-MATE1
T5 sequence (Q96FL8 1-570): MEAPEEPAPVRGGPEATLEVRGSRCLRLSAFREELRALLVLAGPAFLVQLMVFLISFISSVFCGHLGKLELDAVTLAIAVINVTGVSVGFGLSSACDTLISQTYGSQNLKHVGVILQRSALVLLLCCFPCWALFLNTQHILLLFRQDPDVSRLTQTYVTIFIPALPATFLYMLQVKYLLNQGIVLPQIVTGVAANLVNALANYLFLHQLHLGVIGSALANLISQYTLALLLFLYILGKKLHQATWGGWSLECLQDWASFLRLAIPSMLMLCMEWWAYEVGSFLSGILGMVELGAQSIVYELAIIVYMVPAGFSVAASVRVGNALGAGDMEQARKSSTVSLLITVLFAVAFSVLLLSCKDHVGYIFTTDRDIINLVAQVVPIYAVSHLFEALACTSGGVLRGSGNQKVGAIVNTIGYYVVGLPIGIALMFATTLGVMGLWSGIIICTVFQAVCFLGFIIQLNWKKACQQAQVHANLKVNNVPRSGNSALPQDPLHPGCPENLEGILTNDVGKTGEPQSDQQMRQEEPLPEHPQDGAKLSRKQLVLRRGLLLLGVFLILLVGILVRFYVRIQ
Method: (§1) OCT1-, OCT2-, MATE1-, and MATE2K-overexpressing HEK 293 cells and mock cells. To
(§2) aminohippuric acid for OAT1, 4 µM [14C]Metformin for OCT1, OCT2, MATE1, and
(§3) lein for OATP2B1, 100 µM probenecid for OAT1, 100 µM verapamil for OCT1, 200 µM
(§4) and MATE2K, respectively).
(§5) and –MATE2K and mock cells.

MATE2K = MATE2K (Homo sapiens, UniProt Q86VL8); settings: 4 µM probe substrate, HEK 293-MATE2K
Sequence of MATE2K (Q86VL8 1-566 isoform Q86VL8-3): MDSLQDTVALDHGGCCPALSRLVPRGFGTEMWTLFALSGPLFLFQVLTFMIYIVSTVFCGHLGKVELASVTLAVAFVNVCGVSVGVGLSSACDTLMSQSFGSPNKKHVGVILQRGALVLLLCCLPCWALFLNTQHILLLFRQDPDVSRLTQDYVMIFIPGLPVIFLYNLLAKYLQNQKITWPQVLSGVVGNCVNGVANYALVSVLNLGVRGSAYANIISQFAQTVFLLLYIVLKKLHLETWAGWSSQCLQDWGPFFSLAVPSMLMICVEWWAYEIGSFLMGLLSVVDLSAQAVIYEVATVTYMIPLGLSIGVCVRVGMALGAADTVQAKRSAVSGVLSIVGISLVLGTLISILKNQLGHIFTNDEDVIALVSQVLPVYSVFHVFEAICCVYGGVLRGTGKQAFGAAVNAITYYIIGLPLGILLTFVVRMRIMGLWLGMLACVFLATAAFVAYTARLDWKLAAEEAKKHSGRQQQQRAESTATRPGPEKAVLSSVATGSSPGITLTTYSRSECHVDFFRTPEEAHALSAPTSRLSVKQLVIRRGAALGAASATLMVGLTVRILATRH
Method: as §1, §2, §3, §4, §5

OCT1 = target: T6, OCT1 (Homo sapiens, UniProt O15245); settings: 4 µM probe substrate, HEK 293-OCT1
T6 sequence (O15245 1-554): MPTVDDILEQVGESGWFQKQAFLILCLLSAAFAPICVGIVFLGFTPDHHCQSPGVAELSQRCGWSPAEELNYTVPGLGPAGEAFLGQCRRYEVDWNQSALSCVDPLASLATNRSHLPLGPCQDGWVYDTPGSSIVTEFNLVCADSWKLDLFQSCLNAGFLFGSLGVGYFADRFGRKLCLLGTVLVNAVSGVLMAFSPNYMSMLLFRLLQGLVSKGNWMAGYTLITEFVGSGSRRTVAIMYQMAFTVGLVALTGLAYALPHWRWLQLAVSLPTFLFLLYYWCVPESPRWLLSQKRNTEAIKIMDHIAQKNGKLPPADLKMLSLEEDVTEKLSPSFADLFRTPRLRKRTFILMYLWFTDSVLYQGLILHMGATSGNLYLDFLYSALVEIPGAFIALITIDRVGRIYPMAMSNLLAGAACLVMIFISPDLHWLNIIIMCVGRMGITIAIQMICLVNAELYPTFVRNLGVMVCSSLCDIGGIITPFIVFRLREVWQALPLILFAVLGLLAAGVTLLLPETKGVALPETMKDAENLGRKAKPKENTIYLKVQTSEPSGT
Method: as §1, §2, §3, §4, §5

OCT2 = target: T7, OCT2 (Homo sapiens, UniProt O15244); settings: 4 µM probe substrate, HEK 293-OCT2
T7 sequence (O15244 1-555): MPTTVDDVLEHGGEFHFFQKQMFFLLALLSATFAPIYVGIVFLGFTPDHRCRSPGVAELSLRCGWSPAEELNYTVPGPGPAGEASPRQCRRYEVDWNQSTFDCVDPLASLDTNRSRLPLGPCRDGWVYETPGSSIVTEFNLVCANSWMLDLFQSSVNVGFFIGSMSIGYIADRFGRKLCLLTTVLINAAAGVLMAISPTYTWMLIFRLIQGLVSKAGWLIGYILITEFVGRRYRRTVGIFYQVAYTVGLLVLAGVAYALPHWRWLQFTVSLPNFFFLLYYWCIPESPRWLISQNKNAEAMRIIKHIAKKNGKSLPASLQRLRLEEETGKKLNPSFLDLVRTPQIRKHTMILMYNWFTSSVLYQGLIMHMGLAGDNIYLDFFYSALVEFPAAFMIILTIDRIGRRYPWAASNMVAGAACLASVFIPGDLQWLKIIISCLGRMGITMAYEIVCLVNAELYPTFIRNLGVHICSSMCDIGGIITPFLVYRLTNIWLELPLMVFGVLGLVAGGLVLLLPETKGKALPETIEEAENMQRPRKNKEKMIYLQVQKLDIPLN
Method: as §1, §2, §3, §4, §5

ASBT = target: T8, ASBT (Homo sapiens, UniProt Q12908); settings: inhibition of ASBT, implemented in DDI model; ref [38]; cited from earlier work
T8 sequence (Q12908 1-348): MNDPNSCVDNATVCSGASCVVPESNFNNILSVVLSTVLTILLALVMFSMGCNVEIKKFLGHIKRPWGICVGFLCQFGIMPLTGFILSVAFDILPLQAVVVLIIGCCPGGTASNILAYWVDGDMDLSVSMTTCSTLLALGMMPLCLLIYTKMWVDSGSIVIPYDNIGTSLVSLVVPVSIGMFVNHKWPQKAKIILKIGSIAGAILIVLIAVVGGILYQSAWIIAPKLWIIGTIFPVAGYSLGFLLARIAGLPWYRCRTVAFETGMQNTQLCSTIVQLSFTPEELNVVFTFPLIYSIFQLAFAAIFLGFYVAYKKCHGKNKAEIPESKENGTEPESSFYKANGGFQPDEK

OAT3 = settings: inhibition of OAT3, implemented in DDI model; ref [41]; cited from earlier work

IC50 (UGT1A1): 290 nM
Compound: COC(=O)N[C@H](C(=O)N[C@@H](Cc1ccccc1)[C@@H](O)CN(Cc1ccc(-c2ccccn2)cc1)NC(=O)[C@@H](NC(=O)OC)C(C)(C)C)C(C)(C)C [Atazanavir]

IC50 (UGT2B7): 27.3 µM
Compound: O=C1Nc2ccc(Cl)cc2[C@@](C#CC2CC2)(C(F)(F)F)O1 [Efavirenz]

Compound: C[C@@H]1CC[C@@]2(OC1)O[C@H]1C[C@H]3[C@@H]4CC[C@H]5C[C@@H](O)CC[C@]5(C)[C@H]4CC(=O)[C@]3(C)[C@H]1[C@@H]2C [Hecogenin]
IC50 (UGT1A4): 2100 nM

IC50 (UGT1A9): 280 nM
Compound: O=C(O)c1cccnc1Nc1cccc(C(F)(F)F)c1 [Niflumic acid]

Compound: CN(C)C(N)=NC(=N)N [[14C]Metformin]
Increase of probe substrate uptake rate in transporter-expressing cells compared to mock cells (MATE1): 18.3 fold
Increase of probe substrate uptake rate in transporter-expressing cells compared to mock cells (MATE2K): 4.2 fold
Increase of probe substrate uptake rate in transporter-expressing cells compared to mock cells (OCT1): 4.8 fold
Increase of probe substrate uptake rate in transporter-expressing cells compared to mock cells (OCT2): 8.0 fold

Compound: CCc1ccc(CCOc2ccc(CC3SC(=O)NC3=O)cc2)nc1 (stereo not shown) [pioglitazone]
Ki (ASBT): 54.6 µM
Ki (OAT3): 1020 nM
